Test results from patent US10683278B2 (JINAN UNIVERSITY, priority 2015, dated 2020).

Experiments:
AXL kinase = target: T1, AXL kinase (Homo sapiens, UniProt P30530); assay: IC50 test on AXL kinase (Z′-LYTE FRET kinase activity detection); type: biochemical; conditions: for IC50: Z′-LYTE FRET peptide assay, 1 h reaction; for inhibitory activity on AXL kinase: competitive experiment with ATP, in words
T1 construct: purchased Invitrogen PV4803
T1 sequence (P30530 26-894): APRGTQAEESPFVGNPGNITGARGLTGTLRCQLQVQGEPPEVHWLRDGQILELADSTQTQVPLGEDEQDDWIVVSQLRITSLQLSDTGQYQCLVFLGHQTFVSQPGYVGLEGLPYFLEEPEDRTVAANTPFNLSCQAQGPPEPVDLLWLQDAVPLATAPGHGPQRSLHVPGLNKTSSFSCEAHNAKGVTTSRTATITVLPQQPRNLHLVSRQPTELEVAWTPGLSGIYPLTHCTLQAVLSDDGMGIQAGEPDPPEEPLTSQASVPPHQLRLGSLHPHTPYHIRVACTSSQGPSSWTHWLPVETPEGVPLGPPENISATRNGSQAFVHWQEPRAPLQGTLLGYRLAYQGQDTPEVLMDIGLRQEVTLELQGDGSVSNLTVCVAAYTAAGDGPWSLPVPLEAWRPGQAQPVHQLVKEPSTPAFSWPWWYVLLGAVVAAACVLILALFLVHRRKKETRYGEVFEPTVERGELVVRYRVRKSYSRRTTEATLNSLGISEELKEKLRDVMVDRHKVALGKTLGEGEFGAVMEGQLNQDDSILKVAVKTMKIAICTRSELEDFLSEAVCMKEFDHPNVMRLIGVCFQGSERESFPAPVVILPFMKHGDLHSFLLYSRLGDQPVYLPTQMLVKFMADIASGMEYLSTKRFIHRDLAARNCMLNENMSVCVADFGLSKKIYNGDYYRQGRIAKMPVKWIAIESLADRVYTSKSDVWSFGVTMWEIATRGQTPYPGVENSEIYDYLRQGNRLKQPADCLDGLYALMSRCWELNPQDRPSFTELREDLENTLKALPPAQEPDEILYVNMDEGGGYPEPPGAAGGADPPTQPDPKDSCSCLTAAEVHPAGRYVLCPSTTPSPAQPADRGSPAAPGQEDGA
Summary of the method: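 AXL kinase with Z′-LYTE Tyr 2 FRET peptide, ATP and graded compound concentrations reacted 1 h, then site-specific protease cleaved non-phosphorylated peptide for 1 h. Emission at 445 and 520 nm with 400 nm excitation gave the IC50.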

[1] = target: T2, FLT-3 kinase domain recombinant protein (Homo sapiens, UniProt P36888); assay: Inhibition rate on FLT3 kinase (ELISA); type: biochemical; conditions: two values per compound; for inhibition at 0.01 µM / inhibition at 0.1 µM / inhibition at 1 µM: read-out: Inhibition rate (%) against receptor tyrosine kinase FLT-3
T2 construct: 50 μL FLT-3 kinase domain recombinant protein diluted with reaction buffer to initiate the reaction
T2 sequence (P36888 610-943 limits assumed): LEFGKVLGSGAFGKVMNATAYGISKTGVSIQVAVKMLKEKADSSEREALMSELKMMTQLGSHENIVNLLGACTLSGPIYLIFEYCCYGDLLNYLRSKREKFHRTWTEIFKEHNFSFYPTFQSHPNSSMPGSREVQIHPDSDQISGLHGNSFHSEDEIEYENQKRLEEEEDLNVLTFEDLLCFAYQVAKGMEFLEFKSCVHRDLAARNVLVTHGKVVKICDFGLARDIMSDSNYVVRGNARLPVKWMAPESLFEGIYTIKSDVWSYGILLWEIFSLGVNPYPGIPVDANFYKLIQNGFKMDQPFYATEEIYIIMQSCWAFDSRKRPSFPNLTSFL
Summary of the method: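 Recombinant FLT-3 kinase domain phosphorylated coated Poly(Glu,Tyr) 4:1 with ATP in HEPES pH 7.4 buffer with MgCl2, MnCl2, Na3VO4, DTT, 1 h at 37 °C; 1% DMSO final. Phosphotyrosine detected with PY99 and HRP anti-mouse antibody, OPD development, absorbance at 490 nm.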

Structure (SMILES)	IC50 (AXL kinase) [nM]	Inhibition rate (%) against receptor tyrosine kinase FLT-3 ([1]; compound 10 nM, 0.01 µM) [%]	inhibition at 0.01 µM ([1]; compound 10 nM) [%]	Inhibition rate (%) against receptor tyrosine kinase FLT-3 ([1]; compound 100 nM, 0.1 µM) [%]	inhibition at 0.1 µM ([1]; compound 100 nM) [%]	Inhibition rate (%) against receptor tyrosine kinase FLT-3 ([1]; compound 1000 nM, 1 µM) [%]	inhibition at 1 µM ([1]; compound 1000 nM) [%]	inhibitory activity on AXL kinase (AXL kinase)
CCc1ccc2c(c1)c(=O)c(C(=O)Nc1ccc(Oc3ncnc4cc(OCCCN5CCOCC5)c(OC)cc34)c(F)c1)c(C)n2C [GDL5000123, 6-ethyl-N-(3-fluoro-4-((6-methoxy-7-(3-morpholinopropoxy)quinazolin-4-yl)oxy)phenyl)-1,2-dimethyl-4-oxo-1,4-dihydroquinoline-3-carboxamide]	8	74.8	75.4	83.8	89.3	97.4	104	strong inhibitory activity
CCc1ccc2c(c1)c(=O)c(C(=O)Nc1ccc(Oc3ncnc4cc(OCCN(C)C)c(OC)cc34)c(F)c1)c(C)n2C [GDL5000128, N-(4-(7-(2-(dimethylamino)ethoxy)-6-methoxyquinazolin-4-yloxy)-3-fluorophenyl)-6-ethyl-1,2-dimethyl-4-oxo-1,4-dihydroquinoline-3-carboxamide]	6	71.7	59.1	79.5	75.4	–	87.9	strong inhibitory activity
COc1cc2ncnc(Oc3ccc(NC(=O)c4cn5c6c(c(N7CCC(O)CC7)c(F)cc6c4=O)CCC5C)cc3F)c2cc1OC (centres unmarked) [TL4830031, N-(4-((6,7-dimethoxyquinazolin-4-yl)oxy)-3-fluorophenyl)-9-fluoro-8-(4-hydroxypiperidin-1-yl)-5-methyl-1-oxo-1,5,6,7-tetrahydropyrido[3,2,1-ij]quinoline-2-carboxamide]	28	57.9	56.8	65.8	71.4	76.4	79.5	–

Now from value to molecule:

IC50 (AXL kinase) [nM]	Inhibition rate (%) against receptor tyrosine kinase FLT-3 ([1]; compound 10 nM, 0.01 µM) [%]	inhibition at 0.01 µM ([1]; compound 10 nM) [%]	Inhibition rate (%) against receptor tyrosine kinase FLT-3 ([1]; compound 100 nM, 0.1 µM) [%]	inhibition at 0.1 µM ([1]; compound 100 nM) [%]	Inhibition rate (%) against receptor tyrosine kinase FLT-3 ([1]; compound 1000 nM, 1 µM) [%]	inhibition at 1 µM ([1]; compound 1000 nM) [%]	inhibitory activity on AXL kinase (AXL kinase)	Structure (SMILES)
6	41.9	48.7	70.4	76.3	80.7	86.6	–	CCc1ccc2c(c1)c(=O)c(C(=O)Nc1ccc(Oc3ncnc4[nH]cc(-c5ccccc5)c34)c(F)c1)c(C)n2C [TL4800075, 6-ethyl-N-(3-fluoro-4-((5-phenyl-7H-pyrrolo[2,3-d]pyrimidin-4-yl)oxy)phenyl)-1,2-dimethyl-4-oxo-1,4-dihydroquinoline-3-carboxamide]
3	66.4	67.7	83.0	81.5	98.1	98	strong inhibitory activity	CCc1ccc2c(c1)c(=O)c(C(=O)Nc1ccc(Oc3ncnc4cc(OCCCN5CCN(C)CC5)c(OC)cc34)c(F)c1)c(C)n2C [GDL5000138, 6-ethyl-N-(3-fluoro-4-(6-methoxy-7-(3-(4-methylpiperazin-1-yl)propoxy)quinazolin-4-yloxy)phenyl)-1,2-dimethyl-4-oxo-1,4-dihydroquinoline-3-carboxamide]
4	67.0	70.7	77.1	86.4	83.2	84.7	–	CCc1ccc2c(c1)c(=O)c(C(=O)Nc1ccc(Oc3ncnc4cc(OC)c(OC)cc34)c(F)c1)c(C)n2C [TL4800191, N-(4-(6,7-dimethoxyquinazolin-4-yloxy)-3-fluorophenyl)-6-ethyl-1,2-dimethyl-4-oxo-1,4-dihydroquinoline-3-carboxamide]
